The results in this text go back to US20240166610A1, “SUBSTITUTED PYRIDAZINE PHENOL DERIVATIVES” (MEDSHINE DISCOVERY INC., priority 2021, published 2024).

One data set has as its target T1, NLRP3 (Homo sapiens, UniProt Q96P20).
T1 construct: This experiment utilized the human-derived monocyte cell line THP1; endogenous in cells; host or cells: THP-1 (human monocyte line, PMA-differentiated into macrophages)
Put plainly: Detecting IC50 of NLRP3 inhibitor by using THP-1 cells (IL-1β secretion, CBA). Format: cell-based. The conditions noted are these: PMA/LPS/ATP, IL-1β in supernatant. The source says: 1. Experimental principle: This experiment utilized the human-derived monocyte cell line THP1 to investigate the inhibitory activity (IC50) of NLRP3 inhibitor on cellular IL-1β secretion. PMA (12-O-tetradecanoylphorbol-13-acetate) was used to differentiate the monocyte cell line THP1 into mature macrophages, which were then stimulated using LPS (lipopolysaccharide), an agonist of the Toll-like receptor TLR4, to activate the transcriptional activity of the inflammasome NLRP3 and the expression of pro-IL-1β, a precursor of IL-1β. At this time, the inhibitor of NLRP3 was added, and then ATP (adenosine triphosphate) was added to further mature and activate NLRP3, and activate downstream caspase-1. Activated caspase-1 may enzymatically process pro-IL-1β into mature IL-1β that can be secreted.
(1) The density of THP1 cells was adjusted to 5×10^5 cells/mL, then PMA was added, and the final concentration was adjusted to 100 ng/mL. The cells were inoculated 200 μL/well into a 96-well flat-bottom plate, stimulated overnight (<16 hours if possible) at 37° C. and 5% CO2.
(2) The supernatant was discarded the next day, and then the cells were carefully washed twice with Dulbecco's phosphate-buffered saline (200 μL/time).
(3) The cells were stimulated with LPS at a final concentration of 100 ng/mL, added to a 96-well plate (200 μL/well), and cultured at 37° C. and 5% CO2 for 3 hours.
The cells were incubated for 1 hour in a 37° C., 5% CO2 incubator.
(5) ATP was added to each well with a final concentration of 5 mM, and cultured overnight (>18 hours) at 37° C. and 5% CO2.
(6) On the third day, 5 μL of the supernatant was taken, diluted 10-fold, and the content of IL-1β in the supernatant was detected by cytometric bead array (CBA).

A short description of data set [1]: In vivo pharmacokinetic evaluation in SD rats. The conditions noted are these: male, rat, plasma, dose IV/PO 1/2 mg/kg; for half-life / clearance / Vd: 1 mg/kg; for half-life: IV, read-out: Half-life T1/2 (IV) (converted); for clearance: read-out: Clearance rate CL; for Vd: read-out: Tissue distribution Vdss; for AUC(0-t): PO, read-out: Area under drug-time curve AUC0-last PO; for bioavailability: read-out: Bioavailability F; for Cmax: read-out: Peak concentration Cmax. The procedure:
Experimental Example 3: In Vivo Pharmacokinetic Evaluation of Compounds in SD Rats
Experimental Purpose: To Test the In Vivo Pharmacokinetics of the Compounds in SD Rats
The rodent pharmacokinetic characteristics after intravenous injection and oral administration of the compounds were tested using a standard protocol. The candidate compound was prepared as a clear solution during the experiment and given to SD rats for single intravenous injection and oral administration. The vehicle for intravenous injection and oral administration was a mixed vehicle composed of 5% dimethyl sulfoxide and 95% 5% solutol. Four male SD rats were used in this project. Two SD rats were administered intravenously, and plasma samples were collected at 0.083, 0.25, 0.5, 1, 2, 4, 8, and 24 hours after administration. The other two SD rats were administered orally by gavage, and plasma samples were collected at 0.25, 0.5, 1, 2, 4, 8, and 24 hours after administration. The plasma concentration was quantitatively analyzed by LC-MS/MS analysis method, and the pharmacokinetic parameters were calculated, such as peak concentration (Cmaz), clearance rate (CL), half-life (T1/2), […] (Vdss), area under drug-time curve (AUC0-last), bioavailability (F).

Data set [2] in a line: In vivo pharmacokinetic evaluation in CD-1 mice. The conditions noted are these: male, mouse, plasma, dose IV/PO 1/2 mg/kg; for half-life / clearance / Vd: 1 mg/kg; for half-life: IV, read-out: Half-life T1/2 (IV) (converted); for clearance: read-out: Clearance rate CL; for Vd: read-out: Tissue distribution Vdss; for AUC(0-t): PO, read-out: Area under drug-time curve AUC0-last PO; for bioavailability: read-out: Bioavailability F; for Cmax: read-out: Peak concentration Cmax. The procedure: Experimental Example 2: In Vivo Pharmacokinetic Evaluation of Compounds in CD-1 Mice
Experimental purpose: To test the in vivo pharmacokinetics of the compounds in CD-1 mice
CD-1 mice (male, 7 to 9 weeks old)
The rodent pharmacokinetic characteristics after intravenous injection and oral administration of the compounds were tested using a standard protocol. The candidate compound was prepared as a clear solution during the experiment and given to mice for single intravenous injection and oral administration. The vehicle for intravenous injection and oral administration was a mixed vehicle composed of 5% dimethyl sulfoxide and 95% 5% solutol. Four male CD-1 mice were used in this project. Two mice were administered intravenously (IV), and plasma samples were collected at 0 hours (before administration) and 0.0833, 0.25, 0.5, 1, 2, 4, 8, and 24 hours after administration. The other two mice were administered orally by gavage (PO), and plasma samples were collected at 0 hours (before administration) and 0.25, 0.5, 1, 2, 4, 8, and 24 hours after administration. The plasma concentration was quantitatively analyzed by LC-MS/MS analysis method, and the pharmacokinetic parameters were calculated, such as peak concentration (Cmax), clearance rate (CL), half-life (T1/2), […] (Vdss), area under drug-time curve (AUC0-last), bioavailability (F).

Where a name gives a salt, the structure may show the parent alone.

T1 sequence (Q96P20 whole entry): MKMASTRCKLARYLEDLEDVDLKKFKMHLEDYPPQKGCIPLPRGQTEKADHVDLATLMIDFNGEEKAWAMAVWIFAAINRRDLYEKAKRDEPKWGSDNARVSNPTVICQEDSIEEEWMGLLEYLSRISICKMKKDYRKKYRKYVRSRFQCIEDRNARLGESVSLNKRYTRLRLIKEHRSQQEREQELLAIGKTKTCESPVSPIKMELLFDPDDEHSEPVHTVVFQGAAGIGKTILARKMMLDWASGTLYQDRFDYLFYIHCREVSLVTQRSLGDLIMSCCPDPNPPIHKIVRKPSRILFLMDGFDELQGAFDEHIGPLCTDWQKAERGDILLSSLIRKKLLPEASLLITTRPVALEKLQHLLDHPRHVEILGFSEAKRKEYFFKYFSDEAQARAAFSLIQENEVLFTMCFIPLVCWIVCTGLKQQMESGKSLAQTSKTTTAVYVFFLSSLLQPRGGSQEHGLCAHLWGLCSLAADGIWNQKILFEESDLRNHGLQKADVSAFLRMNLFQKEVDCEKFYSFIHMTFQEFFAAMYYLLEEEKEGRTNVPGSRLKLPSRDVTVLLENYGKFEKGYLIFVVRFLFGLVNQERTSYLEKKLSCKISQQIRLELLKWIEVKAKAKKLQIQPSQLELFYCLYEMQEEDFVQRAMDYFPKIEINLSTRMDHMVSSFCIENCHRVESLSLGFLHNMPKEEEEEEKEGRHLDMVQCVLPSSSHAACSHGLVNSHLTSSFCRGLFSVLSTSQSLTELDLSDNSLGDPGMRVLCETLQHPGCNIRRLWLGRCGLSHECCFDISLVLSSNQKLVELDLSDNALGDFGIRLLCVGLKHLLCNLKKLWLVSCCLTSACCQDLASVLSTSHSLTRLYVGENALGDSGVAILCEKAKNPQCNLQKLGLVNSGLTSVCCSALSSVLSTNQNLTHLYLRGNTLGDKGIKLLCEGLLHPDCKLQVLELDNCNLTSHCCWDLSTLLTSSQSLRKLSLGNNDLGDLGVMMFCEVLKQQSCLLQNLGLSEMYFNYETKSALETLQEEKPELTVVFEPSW

For `Cc1cc(NC2CCCN(C3CC(O)C3)C2)nnc1-c1ccc2sccc2c1O` (stereo not shown) [Compound 50], on NLRP3, the IC50 (usually the concentration that gives 50% inhibition) is 1.94 nM.
Consider `Cc1cc(N[C@@H]2CCCN(C(C)C)C2)nnc1-c1ccc2sccc2c1O` [Compound 39], for which, in data set [1], the half-life is 2.19 h, the clearance amounted to 15.3 mL/min/kg, the Vd was determined as 2.63 L/kg and the AUC(0-t) is 4.53 µM·h. In data set [1], the bioavailability is 85.1% and the Cmax came to 573 nM. The IC50 on NLRP3 stood at 0.09 nM.
In the case of `Cc1cc2c(O)c(-c3nnc(NCCN(C)C)cc3C)ccc2s1` [Hydrochloride of compound 58], the IC50 on NLRP3 stood at 0.85 nM.
The same measure, in the same setting: to `Cc1c(N[C@@H]2CCCN(C)C2)nnc(-c2ccc3sccc3c2O)c1C` [Hydrochloride of compound 72] belongs 0.318 nM; to `Cc1cc(Nc2cccnc2)nnc1-c1ccc2sccc2c1O` [Hydrochloride of compound 65], 6.07 nM.
For `Cc1cc(N[C@@H]2CCCN(C(=O)CCN(C)C)C2)nnc1-c1ccc2sccc2c1O` [Compound 51], half-maximal inhibition against NLRP3 (IC50) required 0.142 nM.
The molecule `Cc1cc(N[C@@H]2CCCN(C)C2)nnc1-c1ccc2sc(F)cc2c1O` [Hydrochloride of compound 44a] returned an IC50 at NLRP3 of 0.076 nM.
Same read-out and setting: to `Cc1c(N[C@@H]2CCCC[C@H]2O)nnc(-c2ccc3sccc3c2O)c1C` [Hydrochloride of compound 73] belongs 3.21 nM.
As for `Cc1cc(N[C@@H]2CCCN(C3COC3)C2)nnc1-c1ccc2sccc2c1O` [Compound 26], in data set [2], the half-life is 1.75 h, the clearance came out at 16.6 mL/min/kg, the Vd is 1.71 L/kg and the AUC(0-t) is 3.9 µM·h. In data set [2], the bioavailability was determined as 78.8% and the Cmax was found to be 2070 nM. In data set [1], the half-life was 1.1 h, the clearance is 12.3 mL/min/kg, the Vd was 0.789 L/kg and the AUC(0-t) was determined as 7.4 µM·h. In data set [1], the bioavailability is 108% and the Cmax turned out to be 2910 nM. Besides, on NLRP3, the IC50 worked out at 0.52 nM.
`Cc1cc2c(O)c(-c3nnc(N[C@H]4COC[C@@H]4O)cc3C)ccc2s1` [Hydrochloride of compound 66] returned an IC50 against NLRP3 of 8.18 nM.
Regarding `Cc1cc2c(O)c(-c3nnc(N[C@@H]4CCCC[C@H]4O)cc3C)ccc2s1` [Hydrochloride of compound 67], at NLRP3, the IC50 stood at 16.6 nM.
Molecule `Cc1cc(N[C@@H]2CCCN(C3CCC3)C2)nnc1-c1ccc2c(c1O)CCC2` [Hydrochloride of compound 19] returned an IC50 at NLRP3 of 0.76 nM.
In the case of `Cc1cc(N[C@@H]2CCCN(C3CCOCC3)C2)nnc1-c1ccc2sccc2c1O` [Formate of compound 46], the IC50 against NLRP3 is 0.289 nM.
In turn, `Cc1cc2c(O)c(-c3nnc(N[C@@H]4CCCN(C)C4)cc3C)ccc2s1` [Hydrochloride of compound 43] displayed an IC50 on NLRP3 of 1.76 nM.
Same read-out and setting: to `CN1CCC[C@@H](Nc2ccc(-c3ccc4sccc4c3O)nn2)C1` [Hydrochloride of compound 74] belongs 19.4 nM; to `COC1CC(N2CCC[C@@H](Nc3cc(C)c(-c4ccc5sccc5c4O)nn3)C2)C1` (stereo partly shown) [Compound 49], 0.882 nM.
Turning to `Cc1cc(N[C@@H]2CCCN(CC(N)=O)C2)nnc1-c1ccc2c(c1O)CCC2` [Compound 12b], half-maximal inhibition against NLRP3 (IC50) required 3.13 nM.
Molecule `Cc1cc(N[C@@H]2CCCN(C)C2)nnc1-c1ccc2ccsc2c1O` [Formate of compound 45] returned an IC50 against NLRP3 of 0.078 nM.
`Cc1cc(N[C@@H]2CCCN(C)C2)nnc1-c1ccc2c(c1O)CCC2` [Compound 2] yielded a 50% inhibitory concentration (IC50) at NLRP3 of 0.24 nM.
Molecule `Cc1cc(N[C@@H]2CCCN(C3COC3)C2)nnc1-c1ccc(C2CCC2)cc1O` [Compound 25] registered an IC50 against NLRP3 of 31.1 nM.
On NLRP3, `Cc1cc(N[C@@H]2CCCN(CC(C)(C)O)C2)nnc1-c1ccc2sccc2c1O` [Formate of compound 47] gave an IC50 of 0.69 nM.
In turn, `Cc1cc(N[C@@H]2CCCN(C3CCOC3)C2)nnc1-c1ccc(C2CC2)cc1O` (stereo partly shown) [Compound 30] registered an IC50 against NLRP3 of 3.39 nM.
Molecule `Cc1cc(N[C@@H]2CCCN(C3COC3)C2)nnc1-c1ccc(C2CCCC2)cc1O` [Compound 27a] came in with an IC50 against NLRP3 of 41.5 nM.
For `Cc1cc(N[C@@H]2CCCN(C3CCOCC3)C2)nnc1-c1ccc(C2CC2)cc1O` [Compound 31], the IC50 at NLRP3 is 2.09 nM.
With `Cc1cc(N[C@@H]2CCCN(C(=O)C3CC3)C2)nnc1-c1ccc2sccc2c1O` [Compound 41], inhibition against NLRP3 was half-maximal at 6.87 nM (IC50).
The same measure, in the same setting: the value for `Cc1cc(N[C@H]2CCCC[C@@H]2O)nnc1-c1ccc2sccc2c1O` [Hydrochloride of compound 64] was 21.1 nM; that for `Cc1cc(N[C@@H]2CCCN(C3COC3)C2)nnc1-c1ccc(C2=CCCC2)cc1O` [Compound 27b] was 25.5 nM; that for `Cc1cc(N[C@@H]2CCCN(C)C2)nnc1-c1ccc2sc(F)c(F)c2c1O` [Hydrochloride of compound 44b] was 4.19 nM.
Same read-out and setting: to `Cc1cc(N[C@@H]2CCCN(CC3CC3)C2)nnc1-c1ccc2sccc2c1O` [Compound 40] belongs 0.19 nM; to `Cc1cc(N[C@@H]2CCCN(C3COC3)C2)nnc1-c1ccc2ccccc2c1O` [Compound 28], 18.7 nM.
Turning to `Cc1cc(N[C@@H]2CCCN(C3CCOC3)C2)nnc1-c1ccc2sccc2c1O` (stereo partly shown) [Formate of compound 42], in data set [1], the half-life was 1.72 h, the clearance turned out to be 6.08 mL/min/kg, the Vd came out at 0.837 L/kg and the AUC(0-t) is 9.15 µM·h. In data set [1], the bioavailability stood at 71.2% and the Cmax worked out at 2100 nM. At NLRP3, this molecule showed an IC50 of 0.274 nM.
Take `Cc1cc(N[C@@H]2CCCN(C)C2)nnc1-c1ccc(-c2ccc(F)cc2)cc1O` [Compound 4]: in data set [2], the half-life is 25.7 h, the clearance worked out at 0.795 mL/min/kg, the Vd turned out to be 1.72 L/kg and the AUC(0-t) amounted to 54.3 µM·h. In addition, in data set [2], the bioavailability is 102% and the Cmax came to 2900 nM.
